Measured values as given in US8178506B2, “Oligomeric compounds and compositions for use in modulation of small non-coding RNAs” (Regulus Therapeutics Inc., priority 2003, dated 2012).
In the oligonucleotide strings, read from the 5' end, every base follows the letter of its sugar. An asterisk marks phosphorothioate; unmarked linkages are phosphodiester. Other units and linkages are bracketed, terminal groups are in braces. A string of capitals states the bases alone. e = 2'-O-(2-methoxyethyl) (MOE); [5mC] = 5-methylcytosine

What was measured:
mir-23b miRNA = assay: pGL3-mir-23b sensor luciferase assay in HeLa cells; assay type: cell-based, human; conditions: pGL3-mir-23b sensor-expressing HeLa cells
Text: In order to assess the ability of miRNAs to bind predicted miRNA binding sites and regulate the expression of the luciferase reporter, in some embodiments, expression systems based on the pGL3-Control (Promega Corp., Madison Wis.) reporter vector and comprising either a mir-15a, mir-21, or a mir-23b miRNA binding site were developed and used in transient transfections of HeLa cells to determine whether the endogenous mir-15a, mir-21, or mir-23b miRNAs, respectively, could repress luciferase reporter gene expression.
The pGL3-mir-23b sensor plasmid was created by cloning the sequence ([…]; SEQ ID NO: 307), representing a sequence complementary to the mir-23b miRNA, into the Xba site of the pGL3-Control plasmid, placing the potential miRNA-binding site in the 3′UTR of the luciferase reporter. This reporter plasmid was used to transfect HeLa cells and it was observed that the endogenous mir-23b miRNA was able to inhibit luciferase expression from the pGL3-mir-23b sensor plasmid. Thus, to further evaluate the ability of the mir-23b miRNA to bind this target site encoded by the pGL3-mir-23b sensor plasmid, and to assess the ability of oligomeric compounds to interfere with mir-23b-mediated silencing, pGL3-mir-23b sensor-expressing HeLa cells were treated with varying concentrations (1.3-, 5- or 20 nM) of the following oligomeric compounds: ISIS Number 327889 (SEQ ID NO: 307), a phosphorothioate uniform 2′-MOE oligomeric compound, and ISIS Number 340925 (SEQ ID NO: 307), a 2′-MOE 5-10-8 gapmer oligomeric compound, both targeting mir-23b. The uniform 2′-MOE phosphorothioate oligomeric compound ISIS Number 327924 (SEQ ID NO: 342) targeting an unrelated miRNA (mir-129-2) was used as a negative control. The data are the average of three trials, and are presented in Table 43 as relative luciferase activity (normalized to pRL-CMV luciferase plasmid only, not treated with oligomeric compound).

ERK5 protein = assay: Immunoblot of ERK5 protein in differentiating adipocytes; assay type: cell-based, human; conditions: differentiating adipocytes 7- and 10-days post-differentiation, 250 nM
Procedure: When miRNAs have effects on the expression of downstream genes or proteins encoded by these genes, it is advantageous to measure the protein levels of those gene products, and to do this, western blot (immunoblot) analysis is employed. Immunoblot analysis is carried out using standard methods. Briefly, preadipocytes and differentiating adipocytes were cultured as described previously, and differentiating adipocytes are sampled at several timepoints after stimulation of differentiation. Cells were treated with 250 nM oligomeric compounds and harvested 16-20 h after oligomeric compound treatment. Cells were washed, lysed in RIPA buffer with protease inhibitor cocktail (Roche Diagnostics Corporation, Indianapolis, Ind.), suspended in Laemmli buffer (20 ul/well), boiled for 5 minutes and loaded onto either an 8% SDS-PAGE or a 4-20% gradient SDS-PAGE gel. Gels are run for approximately 1.5 hours at 150 V, and transferred to PVDF membrane for western blotting. […] Bands are visualized and quantitated using a PHOSPHORIMAGER™ (Molecular Dynamics, Sunnyvale Calif.) or the ChemiDoc™ system (Bio-Rad Laboratories, Inc., Hercules, Calif.). Thus, the effects of treatment of many cell types (including, but not limited to, preadipocytes, differentiating adipocytes, HeLa, T-24 and A549 cells) with oligomeric compounds of the present invention on the levels of gene expression products can be assessed. […]

Row | Substance | Fold change luciferase (mir-23b miRNA; 1.3 nM) | Fold change luciferase (mir-23b miRNA; 5 nM) | Fold change luciferase (mir-23b miRNA; 20 nM) | ERK5 protein levels vs pre-adipocytes or untreated differentiating adipocytes (ERK5 protein)
1 | 327889 (antisense eG*eT*eG*eG*eT*eA*eA*eT*e[5mC]*e[5mC]*e[5mC]*eT*eG*eG*e[5mC]*eA*eA*eT*eG*eT*eG*eA*eT) [compound 327889] | 3.75 | 3.46 | 7.40 | 
2 | TGAGCTACAGTGCTTCATCTCA [ISIS 327901] (chemistry not given here) [uniform 2′-MOE PS; targets mir-143] |  |  |  | 2-2.5 fold
